Data published in ChEMBL document CHEMBL5352492, “Application of deep generative model for design of Pyrrolo[2,3-d] pyrimidine derivatives as new selective TANK binding kinase 1 (TBK1) inhibitors” (Eur J Med Chem, 2023).

Experiments:
[1] = molecular target: T1, Serine/threonine-protein kinase TBK1 (Homo sapiens) (UniProt Q9UHD2); test: Inhibition of TBK1 (unknown origin) incubated at 100 nM for 1 hr in presence of ATP by FRET based Z'-Lyte assay relative to control
T1 sequence (whole entry): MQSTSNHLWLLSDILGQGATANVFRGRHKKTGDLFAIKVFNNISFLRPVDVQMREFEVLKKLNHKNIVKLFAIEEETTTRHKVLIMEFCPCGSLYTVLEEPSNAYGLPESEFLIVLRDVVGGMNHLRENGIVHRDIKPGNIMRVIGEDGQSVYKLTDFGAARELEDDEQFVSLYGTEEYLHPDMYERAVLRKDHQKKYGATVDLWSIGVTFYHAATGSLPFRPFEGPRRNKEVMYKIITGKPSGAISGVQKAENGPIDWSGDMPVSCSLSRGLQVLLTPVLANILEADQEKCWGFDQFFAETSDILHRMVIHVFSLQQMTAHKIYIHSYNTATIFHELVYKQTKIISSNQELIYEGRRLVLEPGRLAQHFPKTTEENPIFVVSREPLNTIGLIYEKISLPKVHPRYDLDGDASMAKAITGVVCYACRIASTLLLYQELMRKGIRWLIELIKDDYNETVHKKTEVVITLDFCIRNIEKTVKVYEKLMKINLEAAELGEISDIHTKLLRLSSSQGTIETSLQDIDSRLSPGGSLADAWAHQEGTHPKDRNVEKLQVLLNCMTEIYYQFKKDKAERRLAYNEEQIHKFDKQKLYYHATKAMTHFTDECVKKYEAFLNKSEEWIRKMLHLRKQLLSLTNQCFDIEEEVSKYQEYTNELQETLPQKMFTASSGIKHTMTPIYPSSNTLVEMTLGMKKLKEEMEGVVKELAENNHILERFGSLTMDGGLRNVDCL

[2] = molecular target: T2, Serine/threonine-protein kinase TBK1 (Homo sapiens, UniProt Q9UHD2); test: Inhibition of TBK1 (unknown origin) incubated for 1 hr in presence of ATP by FRET based Z'-Lyte assay
T2 sequence (Q9UHD2 whole entry): T1 sequence (whole entry)

[3] = molecular target: T1, Serine/threonine-protein kinase TBK1 (Homo sapiens); test: Inhibition of TBK1 (unknown origin) incubated at 1000 nM for 1 hr in presence of ATP by FRET based Z'-Lyte assay relative to control
[4] = molecular target: T1, Serine/threonine-protein kinase TBK1 (Homo sapiens); test: Inhibition of TBK1 (unknown origin) incubated at 10 nM for 1 hr in presence of ATP by FRET based Z'-Lyte assay relative to control

| SMILES | inhibition [1] [%] | IC50 [2] [nM] | inhibition [3] [%] | inhibition [4] [%] |
| --- | --- | --- | --- | --- |
| COCCN(C)Cc1cccc(Nc2ncc3ccn(CCCNC(=O)C4CCC4)c3n2)c1 | 68.9 | 35.7 | 91.8 | 23 |
| Cc1cn(CCCNC(=O)C2CCC2)c2nc(Nc3cccc(CN4CCOCC4)c3)ncc12 | 22.8 | – | 78.7 | < 0 |
| O=C(C1CCC1)N1CCC(n2ccc3cnc(Nc4cccc(CN5CCOCC5)c4)nc32)C1 (stereo unspecified) | < 0 | – | < 0 | < 0 |
| O=C(NCCCn1cnc2cnc(Nc3cccc(CN4CCOCC4)c3)nc21)C1CCC1 | < 0 | – | 25.5 | < 0 |
| O=C(NCCCN1C(=O)Cc2cnc(Nc3cccc(CN4CCOCC4)c3)nc21)C1CCC1 | < 0 | – | 0.6 | < 0 |
| O=C(C1CCC1)N1CCC(n2ccc3cnc(Nc4cccc(CN5CCOCC5)c4)nc32)CC1 | < 0 | – | < 0 | < 0 |

The next lines start with the values.

| inhibition [1] [%] | IC50 [2] [nM] | inhibition [3] [%] | inhibition [4] [%] | SMILES |
| --- | --- | --- | --- | --- |
| < 0 | – | 29 | < 0 | O=C(NCCCn1ncc2cnc(Nc3cccc(CN4CCOCC4)c3)nc21)C1CCC1 |
| < 0 | – | 1.8 | < 0 | O=C(Nc1ccc(-n2ccc3cnc(Nc4cccc(CN5CCOCC5)c4)nc32)nc1)C1CCC1 |
| < 0 | – | < 0 | < 0 | O=C(Nc1cccc(Cn2ccc3cnc(Nc4cccc(CN5CCOCC5)c4)nc32)c1)C1CCC1 |
| 15.7 | – | 72.8 | < 0 | O=C(NCc1cccc(-n2ccc3cnc(Nc4cccc(CN5CCOCC5)c4)nc32)c1)C1CCC1 |
